Measured values: patent US11999739B2, “Antimicrobials methods of making and using the same” (BIOVERSYS AG, priority 2016, dated 2024)

Assays:
[1] = tested on: Escherichia coli strain ATCC25922; experiment: Standard microdilution MIC assay, E. coli; type: cell-based
Outline: (§1)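 Broth microdilution per CLSI M7-A8 guidelines, with reference-strain quality control run in the same design; MIC determined per strain. Activity scored +/− against a 16 micrograms/mL cutoff.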

[2] = tested on: Staphylococcus aureus (S. aureus) 11540 strain; experiment: Standard microdilution MIC assay, S. aureus; type: cell-based
Outline: as §1

[3] = Rat five day safety study (bodyweight gain, reticulocyte count change); type: in vivo; conditions: male Sprague-Dawley juvenile rats, n=5, once daily slow intravenous infusion for 5 days at or near maximum-tolerated dose; for BW Result: bodyweight gain; for Hematology Result: reticulocyte count change
Description: The compounds of the present disclosure were tested for safety in a multi-day dosing study in rat. Key parameters that were monitored are bodyweight gain and hematological changes, particularly changes in reticulocyte counts. Male Sprague-Dawley (CD) juvenile rats were received from Charles River with double jugular vein catheters. For each compound, n=5. […] Bodyweights were recorded daily for the first 5 days (during the dosing period), then 2 to 3 times per week thereafter. Blood was collected via a jugular vein catheter into EDTA anti-coagulated tubes for complete blood counts (CBC) on Days 0 (baseline), 3 and 7. On Day 22, blood was drawn via a cardiac puncture into EDTA coated tubes for final CBC, and serum separator tubes for the complete clinical chemistry profile. The blood that was collected into serum separator tubes was allowed to clot at room temperature for approximately 30 minutes, spun in a centrifuge at 2000 rpm, and the resulting serum was aliquoted. All samples were sent on wet ice to Charles River Labs for analysis.

| Compound | MIC [1] [µg/mL] | MIC [2] [µg/mL] | BW Result [3] | Hematology Result [3] |
| --- | --- | --- | --- | --- |
| COC[C@H](N)CCCc1cc(-c2cc3cn(-c4ccc([C@@H]5CCC[C@@H](CCNC(C)=N)N5)c(SC)c4)c(=O)nc3[nH]2)c(F)c(C(F)(F)F)c1 [Compound 199] | ≤ 16 | ≤ 16 | + (a “+” in “BW result” indicates that the rat exhibited a weight gain of 20% or more) | − (a “−” indicates indicates that the rat exhibited a reticulocyte count change of greater than 65%) |
| CC(=N)NCC[C@@H]1CCC[C@@H](c2ccc(-n3cc4cc(-c5cc(CCC[C@@H](N)CO)cc(Cl)c5F)[nH]c4nc3=O)cc2F)N1 [Compound 162] | ≤ 16 | ≤ 16 | − (a “−” indicates that the rat exhibited a weight gain of less than 20%) | − (a “−” indicates indicates that the rat exhibited a reticulocyte count change of greater than 65%) |
| CC(=N)NCC[C@@H]1CCC[C@@H](c2ccc(-n3cc4cc(-c5cc(CCC[C@@H](N)C6CC6)cc(Cl)c5F)[nH]c4nc3=O)cc2)N1C [Compound 123] | ≤ 16 | ≤ 16 | + (a “+” in “BW result” indicates that the rat exhibited a weight gain of 20% or more) | + (a “+” in “Hematology result” indicates indicates that the rat exhibited a reticulocyte count change of 65% or less) |
| C=C[C@H](CCNC(=N)CF)NCc1ccc(-n2cc3cc(-c4cc(CCC[C@@H](N)C(F)(F)F)cc(Cl)c4F)[nH]c3nc2=O)cc1 [Compound 44] | > 16 | ≤ 16 |  |  |
| CC(C)(N)CCCc1cc(Cl)c(F)c(-c2cc3cn(-c4ccc([C@@H]5COC[C@@H](CCNC(=N)CF)N5)cc4)c(=O)nc3[nH]2)c1 [Compound 69] | ≤ 16 | ≤ 16 |  |  |
| CC(=N)NCCCN[C@@H](CO)c1ccc(-n2cc3cc(-c4cc(CCC[C@@H](N)C5CC5)cc(Cl)c4F)[nH]c3nc2=O)cc1 [Compound 134] | ≤ 16 | ≤ 16 |  |  |
| C=C[C@H](N)CCCc1cc(Cl)c(F)c(-c2cc3cn(-c4cc(F)c([C@@H]5CCC[C@@H](CCNC(C)=N)N5)c(OC)c4)c(=O)nc3[nH]2)c1 [Compound 320] | ≤ 16 | ≤ 16 |  |  |
| C=CC(CCNC(=N)COC)NCc1ccc(-n2cc3cc(-c4cc(CCC[C@H](C)N)cc(Cl)c4F)[nH]c3nc2=O)cc1 (stereo partly shown) [Compound 34] | ≤ 16 | ≤ 16 |  |  |
| CC(=N)NCC[C@@H]1CCC[C@@H](c2ccc(-n3cc4cc(-c5cc(CCC[C@H](C)N)cc(Cl)c5F)[nH]c4nc3=O)cc2F)N1CCCF [Compound 325] | ≤ 16 | ≤ 16 |  |  |
| C=C[C@@H](CCNC(=N)CCOCC)NCc1ccc(-n2cc3cc(-c4cc(CCC[C@H](C)N)cc(Cl)c4F)[nH]c3nc2=O)cc1 [Compound 52] | ≤ 16 | ≤ 16 |  |  |
| CC(=N)NCC[C@@H]1CCC[C@@H](c2ccc(-n3cc4cc(-c5cc(CCC[C@@H](N)C6CC6)cc(C(F)(F)F)c5)[nH]c4nc3=O)cc2)N1 [Compound 206] | ≤ 16 | ≤ 16 |  |  |
| COC[C@@H](CCNC(C)=N)NCc1ccc(-n2cc3cc(-c4cc(CCC[C@@H](N)CF)cc(Cl)c4F)[nH]c3nc2=O)cc1 [Compound 188] | ≤ 16 | ≤ 16 |  |  |
| C=C[C@@H](CCNC(C)=N)NC(=O)c1ccc(-n2cc3cc(-c4cc(CCC[C@H](C)N)cc(Cl)c4F)[nH]c3nc2=O)cc1 [Compound 60] | ≤ 16 | ≤ 16 |  |  |
| CC(=N)NCC[C@@H]1CCC[C@@H](c2ccc(-n3cc4cc(-c5cc(CCC[C@H](N)C(F)F)cc(Cl)c5F)[nH]c4nc3=O)cc2)N1 [Compound 141] | ≤ 16 | ≤ 16 |  |  |
| CC(=N)NCC[C@@H]1CCC[C@@H](c2ccc(-n3cc4cc(-c5cc(CCC[C@@H](N)CF)cc(Cl)c5F)[nH]c4nc3=O)cc2Cl)N1 [Compound 176] | ≤ 16 | ≤ 16 |  |  |
| C=C[C@H](N)CCCc1cc(Cl)c(F)c(-c2cc3cn(-c4ccc([C@H](C)N[C@@H](CO)CCNC(C)=N)c(F)c4)c(=O)nc3[nH]2)c1 [Compound 174] | ≤ 16 | ≤ 16 |  |  |
| COC[C@H](N)CCCc1cc(OC(F)(F)F)c(F)c(-c2cc3cn(-c4ccc([C@@H]5CCC[C@@H](C[C@H](C)NC(C)=N)N5)cc4)c(=O)nc3[nH]2)c1 [Compound 258] | ≤ 16 | ≤ 16 |  |  |
| CSc1cc(-n2cc3cc(-c4cc(CCC[C@@H](N)C5CC5)cc(C(F)(F)F)c4)[nH]c3nc2=O)ccc1[C@@H]1CCC[C@@H](CCNC(C)=N)N1 [Compound 250] | ≤ 16 | ≤ 16 |  |  |
| COCCOCC(=N)NCC[C@@H]1CCC[C@@H](c2ccc(-n3cc4cc(-c5cc(CCC[C@H](C)N)cc(Cl)c5F)[nH]c4nc3=O)cc2)N1 [Compound 362] | ≤ 16 | ≤ 16 |  |  |
| C[C@H](N)CCCc1cc(Cl)c(F)c(-c2cc3cn(-c4ccc([C@H](C)NCCCNC(=N)CF)c(F)c4)c(=O)nc3[nH]2)c1 [Compound 94] | ≤ 16 | ≤ 16 |  |  |
| CC(=N)NCCCN[C@@H](C)c1ccc(-n2cc3cc(-c4cc(CCC[C@@H](N)CO)cc(Cl)c4F)[nH]c3nc2=O)cc1F [Compound 113] | ≤ 16 | ≤ 16 |  |  |
| C=CC(CCNC(C)=N)NCc1ccc(-n2cc3cc(-c4cc(CCC(C)(C)CN)cc(Cl)c4F)[nH]c3nc2=O)cc1 (stereo not shown) [Compound 26] | ≤ 16 | ≤ 16 |  |  |

Second part, led by results:

| MIC [1] [µg/mL] | MIC [2] [µg/mL] | Compound | BW Result [3] | Hematology Result [3] |
| --- | --- | --- | --- | --- |
| ≤ 16 | ≤ 16 | C=C[C@@H](CCNC(=N)COC)NCc1ccc(-n2cc3cc(-c4cc(CCC[C@H](C)N)cc(Cl)c4F)[nH]c3nc2=O)cc1 [Compound 53] |  |  |
| ≤ 16 | ≤ 16 | CC(=N)N[C@@H](C)C[C@@H]1CCC[C@@H](c2ccc(-n3cc4cc(-c5cc(CCC[C@H](C)N)cc(Cl)c5F)[nH]c4nc3=O)cc2)N1 [Compound 253] |  |  |
| ≤ 16 | ≤ 16 | CC(=N)NCC[C@@H]1CCC[C@@H](c2ccc(-n3cc4cc(-c5cc(CCC[C@H](C)N)cc(Cl)c5F)[nH]c4nc3=O)cc2)N1CCF [Compound 364] |  |  |
| ≤ 16 | ≤ 16 | CC(=N)NCCCN[C@@H](CO)c1ccc(-n2cc3cc(-c4cc(CCC[C@@H](N)CF)cc(Cl)c4F)[nH]c3nc2=O)cc1 [Compound 136] |  |  |
| ≤ 16 | ≤ 16 | CC(=N)NCC[C@@H]1CSC[C@@H](c2ccc(-n3cc4cc(-c5cc(CCC[C@@H](N)C6CC6)cc(Cl)c5F)[nH]c4nc3=O)cc2)N1 [Compound 269] |  |  |
| ≤ 16 | ≤ 16 | C=C[C@@H](N)CCCc1cc(Cl)c(F)c(-c2cc3cn(-c4ccc([C@@H]5CCC[C@@H](C[C@@H](C)NC(C)=N)N5)cc4)c(=O)nc3[nH]2)c1 [Compound 340] |  |  |
| ≤ 16 | ≤ 16 | CC(=N)NCC[C@@H]1CCC[C@@H](c2ccc(-n3cc4cc(-c5cc(CCC[C@H](C)N)cc(Cl)c5F)[nH]c4nc3=O)cc2Cl)N1 [Compound 175] |  |  |
| ≤ 16 | ≤ 16 | CSC[C@H](N)CCCc1cc(Cl)c(F)c(-c2cc3cn(-c4ccc([C@@H]5CCC[C@@H](CCNC(C)=N)N5)cc4)c(=O)nc3[nH]2)c1 [Compound 276] |  |  |
| ≤ 16 | ≤ 16 | COCCN1[C@H](CCNC(C)=N)CCC[C@H]1c1ccc(-n2cc3cc(-c4cc(CCC[C@H](C)N)cc(Cl)c4F)[nH]c3nc2=O)cc1 [Compound 277] |  |  |
| ≤ 16 | ≤ 16 | COc1cc(-n2cc3cc(-c4cc(CCC[C@H](C)N)cc(Cl)c4F)[nH]c3nc2=O)cc(F)c1[C@@H]1CCC[C@@H](CCNC(C)=N)N1 [Compound 319] |  |  |
| ≤ 16 | ≤ 16 | C=C[C@@H](CCNC(C)=N)N[C@@H](C)c1ccc(-n2cc3cc(-c4cc(CCC[C@@H](N)CO)cc(Cl)c4F)[nH]c3nc2=O)cc1 [Compound 151] |  |  |
| ≤ 16 | ≤ 16 | CC(C)(N)CCCc1cc(Cl)c(F)c(-c2cc3cn(-c4ccc([C@@H]5CCC[C@@H](CCNC(=N)CF)N5)cc4)c(=O)nc3[nH]2)c1 [Compound 12] |  |  |
| ≤ 16 | ≤ 16 | C=C[C@H](N)CCCc1cc(-c2cc3cn(-c4ccc([C@@H]5CCC[C@@H](CCNC(C)=N)N5CCCF)cc4)c(=O)nc3[nH]2)cc(C(F)(F)F)c1 [Compound 346] |  |  |
| ≤ 16 | ≤ 16 | C=C[C@@H](CCNC(C)=N)NCc1ccc(-n2cc3cc(-c4cc(CCC[C@@H](N)C5CC5)cc(Cl)c4F)[nH]c3nc2=O)cc1 [Compound 87] |  |  |
| ≤ 16 | ≤ 16 | COC[C@H](N)CCCc1cc(-c2cc3cn(-c4ccc([C@@H]5CCC[C@@H](CCNC(C)=N)N5)c(F)c4)c(=O)nc3[nH]2)cc(C(F)(F)F)c1 [Compound 201] |  |  |
| ≤ 16 | ≤ 16 | CC(=N)NCCCNC1(c2ccc(-n3cc4cc(-c5cc(CCC[C@H](C)N)cc(Cl)c5F)[nH]c4nc3=O)cc2)CC1 [Compound 145] |  |  |
| ≤ 16 | ≤ 16 | CC(=N)NCC[C@@H]1CCC[C@@H](c2ccc(-n3cc4cc(-c5cc(CCC[C@@H](N)C6CC6)cc(C(F)(F)F)c5)[nH]c4nc3=O)cc2OC(F)(F)F)N1 [Compound 217] |  |  |
| ≤ 16 | ≤ 16 | CC(=N)NCC[C@@H]1CNC[C@@H](c2ccc(-n3cc4cc(-c5cc(CCC[C@H](C)N)cc(Cl)c5F)[nH]c4nc3=O)cc2)O1 [Compound 32] |  |  |
| ≤ 16 | ≤ 16 | CC(=N)NCC[C@@H]1CCC[C@@H](c2ccc(-n3cc4cc(-c5cc(CCC[C@@H]6COCCN6)cc(Cl)c5F)[nH]c4nc3=O)cc2F)N1 [Compound 245] |  |  |
